A word on the IC50: it is the concentration needed to halve the response being measured.

For five molecules, IC50 results are on record in US9926299B2, “Inhibitors of bruton's tyrosine kinase” (Centaurus BioPharma Co., Ltd., priority 2012, dated 2018).

The test system of one assay is Ramos cells. Description: BCR-induced calcium flux fluorescence-based assay in Ramos cells. The conditions noted are these: Ramos cells stimulated with goat anti-human IgM antibody; read-out: Ramos Cell Ca Flux IC50. As for the experimental part:
Calcium flux fluorescence-based assays were performed using Fluo-4 Direct™ Calcium Assay Kits (purchased from Invitrogen) in a FlexStation III (purchased from Molecular Devices) according to manufacturer instructions. In brief, actively growing Romas cells in RPM1-1640 medium (purchased from Invitrogen) supplemented with 10% FBS (purchased from Hyclone) were washed and re-plated in low serum medium at approximately 1×10^5 cells per 45 μL per well in a 96-well plate (purchased from Corning), then added 45 μL of dye (purchased from Invitrogen) and incubated at 37 degree for 1 hour. Compounds to be assayed were dissolved and 3-fold serially diluted in DMSO and then diluted by 100 times in low serum medium. Then 10 μL of the diluted mixture were added to the above 96-well plate (final DMSO concentration was 0.1%) and incubated at 37 degree in 5% CO2 incubator for 0.5 hour. The compound-treated cells were stimulated with a goat anti-human IgM antibody (10 μg/ml; purchased from SouthernBiotech) and read in the FlexStation III using a λEx=494 nM and […] for 90 seconds. The relative fluorescence unit (RFU) and the IC50 were recorded and analyzed using a GraphPad Prism 5 (GraphPad Software).
In general terms: Calcium assays in cells follow changes in intracellular calcium, usually with a dye or a luminescent sensor.

For a further assay, the target named is BTK kinase (Homo sapiens (Human), UniProt Q06187). Put plainly: Btk kinase enzymatic assay (HTRF). It counts as biochemical. As to conditions: ATP at Km. As for the experimental part: Btk kinase activity was determined using a Homogeneous Time-Resolved Fluorescence (HTRF) methodology (Cisbio). […] The mixture was centrifuged and incubated for 5 min. […] For each compound, enzyme activity was measured at various concentrations of compound, and IC50s were obtained by GraFit Software 6.0 (Erithacus Software).
Chain of BTK kinase (Q06187 whole entry): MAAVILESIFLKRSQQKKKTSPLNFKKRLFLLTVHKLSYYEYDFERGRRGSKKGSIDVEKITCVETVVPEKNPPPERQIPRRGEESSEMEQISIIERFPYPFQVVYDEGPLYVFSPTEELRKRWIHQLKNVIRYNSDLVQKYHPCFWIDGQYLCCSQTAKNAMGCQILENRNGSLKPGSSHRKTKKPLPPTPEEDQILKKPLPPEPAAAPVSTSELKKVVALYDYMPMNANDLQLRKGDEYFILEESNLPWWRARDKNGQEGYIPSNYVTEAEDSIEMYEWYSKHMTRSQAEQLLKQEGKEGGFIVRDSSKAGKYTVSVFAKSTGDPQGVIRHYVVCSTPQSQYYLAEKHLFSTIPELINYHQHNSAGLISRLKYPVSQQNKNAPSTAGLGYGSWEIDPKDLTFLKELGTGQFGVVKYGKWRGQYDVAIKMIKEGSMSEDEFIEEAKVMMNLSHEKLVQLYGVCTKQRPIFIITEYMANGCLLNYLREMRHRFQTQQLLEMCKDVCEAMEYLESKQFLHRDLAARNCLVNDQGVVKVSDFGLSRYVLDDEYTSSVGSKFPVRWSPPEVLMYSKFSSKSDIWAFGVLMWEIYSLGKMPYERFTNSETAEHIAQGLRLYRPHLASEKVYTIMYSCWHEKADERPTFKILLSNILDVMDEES

SMILES strings stand for the structures.

On to `C=CC(=O)N1CC[C@@H](n2nc(-c3ccc(Oc4ccccc4Cl)cc3)c(C(N)=O)c2N)C1` [Example 45, (R)-1-(1-acryloylpyrrolidin-3-yl)-5-amino-3-(4-(2-chlorophenoxyl)phenyl)-1H-pyrazole-4-carboxamide], for which the IC50 in the assay on Ramos cells and on BTK kinase was less than 100 nM each time.

On to `C=CC(=O)N1CC[C@@H](n2nc(-c3ccc(Oc4ccc(OC)cc4)cc3)c(C(N)=O)c2N)C1` [Example 46, (R)-1-(1-acryloylpyrrolidin-3-yl)-5-amino-3-(4-(4-methoxyphenoxyl)phenyl)-1H-pyrazole-4-carboxamide], for which the 50% inhibitory concentration (IC50) in the assay with Ramos cells and at BTK kinase was less than 100 nM each time.

`C=CC(=O)N1CC[C@@H](n2nc(-c3ccc(Oc4cc([N+](=O)[O-])ccc4C)cc3)c(C(N)=O)c2N)C1` [Example 47, (R)-1-(1-acryloylpyrrolidin-3-yl)-5-amino-3-(4-(2-methyl-5-nitrophenoxy)phenyl)-1H-pyrazole-4-carboxamide]: the IC50 with Ramos cells and against BTK kinase was less than 100 nM in each case.

Take `C=CC(=O)N1CC[C@@H](n2nc(-c3ccc(Oc4ccc(C)c([N+](=O)[O-])c4)cc3)c(C(N)=O)c2N)C1` [Example 48, (R)-1-(1-acryloylpyrrolidin-3-yl)-5-amino-3-(4-(4-methyl-3-nitrophenoxy)phenyl)-1H-pyrazole-4-carboxamide]: the IC50 in the assay on Ramos cells and on BTK kinase was less than 100 nM each time.

With `C=CC(=O)N1CC[C@@H](n2nc(-c3ccc(Oc4cccc([N+](=O)[O-])c4)c(C)c3)c(C(N)=O)c2N)C1` [Example 49, (R)-1-(1-acryloylpyrrolidin-3-yl)-5-amino-3-(3-methyl-4-(3-nitrophenoxy)phenyl)-1H-pyrazole-4-carboxamide], the IC50 in the assay with Ramos cells and on BTK kinase was less than 100 nM throughout.
